Laboratory results published in ChEMBL document CHEMBL1201862, “PubChem BioAssay data set” (2004).
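Briefly, cells in 96-well plates were exposed to five compound concentrations for 48 h, and endpoints were estimated by linear interpolation. Abbreviation: GI50, concentration required for 50% inhibition of growth.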 The source made the active and inactive calls. Rule as the data show it: active = GI50 up to about 1.1 µM and inactive = higher.

Experiments:
Assay in all cases: NCI anticancer screen, dose series, 48 h
786-0 = tested on: 786-0
NCI/ADR-RES = tested on: NCI/ADR-RES
UACC-62 = tested on: UACC-62
SK-MEL-5 = tested on: SK-MEL-5
M14 = tested on: M14
COLO 205 = tested on: COLO 205
A498 = tested on: A498
NCI-H460 = tested on: NCI-H460
A549 = tested on: A549
SK-MEL-28 = tested on: SK-MEL-28
Hs-578T = tested on: Hs-578T
RXF 393 = tested on: RXF 393
PC-3 = tested on: PC-3
SK-OV-3 = tested on: SK-OV-3
HCT-116 = tested on: HCT-116
SW-620 = tested on: SW-620
SNB-75 = tested on: SNB-75
OVCAR-5 = tested on: OVCAR-5
NCI-H522 = tested on: NCI-H522
TK-10 = tested on: TK-10
MDA-N = tested on: MDA-N
DU-145 = tested on: DU-145
HOP-92 = tested on: HOP-92
MDA-MB-435 = tested on: MDA-MB-435
HL-60 = tested on: HL-60
HCT-15 = tested on: HCT-15
BT-549 = tested on: BT-549
SNB-19 = tested on: SNB-19
NCI-H23 = tested on: NCI-H23
ACHN = tested on: ACHN
NCI-H226 = tested on: NCI-H226
SN12C = tested on: SN12C
OVCAR-4 = tested on: OVCAR-4
KM12 = tested on: KM12
OVCAR-3 = tested on: OVCAR-3
MOLT-4 = tested on: MOLT-4
SF-268 = tested on: SF-268
K562 = tested on: K562
SF-539 = tested on: SF-539
IGROV-1 = tested on: IGROV-1
MCF7 = tested on: MCF7
HOP-62 = tested on: HOP-62
EKVX = tested on: EKVX
MDA-MB-231 = tested on: MDA-MB-231
OVCAR-8 = tested on: OVCAR-8
CAKI-1 = tested on: CAKI-1
RPMI-8226 = tested on: RPMI-8226
SF-295 = tested on: SF-295
HT-29 = tested on: HT-29
UACC-257 = tested on: UACC-257
T47D = tested on: T47D
CCRF-CEM = tested on: CCRF-CEM
LOX IMVI = tested on: LOX IMVI
UO-31 = tested on: UO-31
Malme-3M = tested on: Malme-3M
HCC 2998 = tested on: HCC 2998
SR = tested on: SR
U-251 = tested on: U-251
SK-MEL-2 = tested on: SK-MEL-2

Compound: CCCCCC/C=C\CCCCCCCCCC1=C(CN2CCN(C)CC2)C(=O)C=C(OC)C1=O
- GI50 (786-0): 1.67 µM (inactive)
- GI50 (NCI/ADR-RES): 3.58 µM (inactive)
- GI50 (UACC-62): 12.9 µM (inactive)
- GI50 (SK-MEL-5): 6.75 µM (inactive)
- GI50 (M14): 2.51 µM (inactive)
- GI50 (COLO 205): 1.71 µM (inactive)
- GI50 (A498): 17.5 µM (inactive)
- GI50 (NCI-H460): 5.73 µM (inactive)
- GI50 (A549): 3.83 µM (inactive)
- GI50 (SK-MEL-28): 13.6 µM (inactive)
- GI50 (Hs-578T): 6.03 µM (inactive)
- GI50 (RXF 393): 2.29 µM (inactive)
- GI50 (PC-3): 2.37 µM (inactive)
- GI50 (SK-OV-3): 13.2 µM (inactive)
- GI50 (HCT-116): 2.14 µM (inactive)
- GI50 (SW-620): 1.59 µM (inactive)
- GI50 (SNB-75): 1.62 µM (inactive)
- GI50 (OVCAR-5): 15.2 µM (inactive)
- GI50 (NCI-H522): 1.55 µM (inactive)
- GI50 (TK-10): 2.92 µM (inactive)
- GI50 (MDA-N): 8.05 µM (inactive)
- GI50 (DU-145): 13.4 µM (inactive)
- GI50 (HOP-92): 2.64 µM (inactive)
- GI50 (MDA-MB-435): 8.65 µM (inactive)
- GI50 (HL-60): 0.881 µM (active)
- GI50 (HCT-15): 2.47 µM
- GI50 (BT-549): 3.87 µM (inactive)
- GI50 (SNB-19): 11.8 µM (inactive)
- GI50 (NCI-H23): 4.57 µM (inactive)
- GI50 (ACHN): 3.28 µM (inactive)
- GI50 (NCI-H226): 14.2 µM (inactive)
- GI50 (SN12C): 4.37 µM (inactive)
- GI50 (OVCAR-4): 1.76 µM (inactive)
- GI50 (KM12): 6.47 µM (inactive)
- GI50 (OVCAR-3): 6.76 µM (inactive)
- GI50 (MOLT-4): 0.353 µM (active)
- GI50 (SF-268): 5.61 µM (inactive)
- GI50 (K562): 2.24 µM (inactive)
- GI50 (SF-539): 15.4 µM (inactive)
- GI50 (IGROV-1): 5.93 µM (inactive)
- GI50 (MCF7): 4.3 µM (inactive)
- GI50 (HOP-62): 15.6 µM (inactive)
- GI50 (EKVX): 13.6 µM (inactive)
- GI50 (MDA-MB-231): 9.53 µM (inactive)
- GI50 (OVCAR-8): 4.53 µM (inactive)
- GI50 (CAKI-1): 2.73 µM (inactive)
- GI50 (RPMI-8226): 2 µM (inactive)
- GI50 (SF-295): 6.3 µM (inactive)
- GI50 (HT-29): 7.28 µM (inactive)
- GI50 (UACC-257): 13.3 µM (inactive)
- GI50 (T47D): 2.28 µM (inactive)
- GI50 (CCRF-CEM): 0.465 µM (active)
- GI50 (LOX IMVI): 3.8 µM (inactive)
- GI50 (UO-31): 3.03 µM (inactive)
- GI50 (Malme-3M): 2.79 µM (inactive)
- GI50 (HCC 2998): 7.6 µM (inactive)
- GI50 (SR): 0.0578 µM (active)

Compound: C[C@@H](NC(=O)Cn1c(Cl)nc2ccccc21)c1ccccc1
- GI50 (786-0): > 100 µM (inactive)
- GI50 (NCI/ADR-RES): 33 µM (inactive)
- GI50 (UACC-62): > 100 µM (inactive)
- GI50 (SK-MEL-5): 17.5 µM (inactive)
- GI50 (M14): > 100 µM (inactive)
- GI50 (COLO 205): > 100 µM (inactive)
- GI50 (A498): > 100 µM (inactive)
- GI50 (NCI-H460): > 100 µM (inactive)
- GI50 (A549): > 100 µM (inactive)
- GI50 (SK-MEL-28): > 100 µM (inactive)
- GI50 (Hs-578T): 51.6 µM (inactive)
- GI50 (RXF 393): > 100 µM (inactive)
- GI50 (PC-3): > 100 µM (inactive)
- GI50 (SK-OV-3): > 100 µM (inactive)
- GI50 (HCT-116): > 100 µM (inactive)
- GI50 (SW-620): > 100 µM (inactive)
- GI50 (SNB-75): > 100 µM (inactive)
- GI50 (OVCAR-5): > 100 µM (inactive)
- GI50 (NCI-H522): 38.2 µM (inactive)
- GI50 (TK-10): > 100 µM (inactive)
- GI50 (U-251): > 100 µM (inactive)
- GI50 (MDA-N): > 100 µM (inactive)
- GI50 (DU-145): > 100 µM (inactive)
- GI50 (HOP-92): > 100 µM (inactive)
- GI50 (MDA-MB-435): > 100 µM (inactive)
- GI50 (HL-60): > 100 µM (inactive)
- GI50 (HCT-15): > 100 µM
- GI50 (BT-549): > 100 µM (inactive)
- GI50 (SNB-19): > 100 µM (inactive)
- GI50 (NCI-H23): 46.2 µM (inactive)
- GI50 (ACHN): > 100 µM (inactive)
- GI50 (NCI-H226): > 100 µM (inactive)
- GI50 (OVCAR-4): > 100 µM (inactive)
- GI50 (KM12): > 100 µM (inactive)
- GI50 (OVCAR-3): > 100 µM (inactive)
- GI50 (MOLT-4): > 100 µM (inactive)
- GI50 (SF-268): > 100 µM (inactive)
- GI50 (K562): > 100 µM (inactive)
- GI50 (SF-539): > 100 µM (inactive)
- GI50 (MCF7): > 100 µM (inactive)
- GI50 (HOP-62): > 100 µM (inactive)
- GI50 (EKVX): 26.7 µM (inactive)
- GI50 (MDA-MB-231): > 100 µM (inactive)
- GI50 (OVCAR-8): > 100 µM (inactive)
- GI50 (CAKI-1): > 100 µM (inactive)
- GI50 (RPMI-8226): > 100 µM (inactive)
- GI50 (SK-MEL-2): > 100 µM (inactive)
- GI50 (SF-295): > 100 µM (inactive)
- GI50 (HT-29): > 100 µM (inactive)
- GI50 (UACC-257): > 100 µM (inactive)
- GI50 (T47D): 36.2 µM (inactive)
- GI50 (CCRF-CEM): > 100 µM (inactive)
- GI50 (LOX IMVI): 75.7 µM (inactive)
- GI50 (UO-31): > 100 µM (inactive)
- GI50 (Malme-3M): > 100 µM (inactive)
- GI50 (HCC 2998): > 100 µM (inactive)
- GI50 (SR): > 100 µM (inactive)

Compound: C[C@]12CC[C@H]3[C@@H](CC=C4C[C@@H](N5CCCC5)CC[C@@]43C)[C@@H]1C[C@H](N1CCOCC1)[C@@H]2O
- GI50 (786-0): > 100 µM (inactive)
- GI50 (NCI/ADR-RES): > 100 µM (inactive)
- GI50 (UACC-62): > 100 µM (inactive)
- GI50 (SK-MEL-5): > 100 µM (inactive)
- GI50 (M14): > 10 µM (inactive)
- GI50 (COLO 205): > 100 µM (inactive)
- GI50 (A498): > 100 µM (inactive)
- GI50 (NCI-H460): > 100 µM (inactive)
- GI50 (A549): > 100 µM (inactive)
- GI50 (SK-MEL-28): > 100 µM (inactive)
- GI50 (Hs-578T): > 100 µM (inactive)
- GI50 (RXF 393): > 100 µM (inactive)
- GI50 (PC-3): > 100 µM (inactive)
- GI50 (SK-OV-3): > 100 µM (inactive)
- GI50 (HCT-116): > 100 µM (inactive)
- GI50 (SW-620): > 100 µM (inactive)
- GI50 (SNB-75): > 100 µM (inactive)
- GI50 (OVCAR-5): > 100 µM (inactive)
- GI50 (NCI-H522): > 100 µM (inactive)
- GI50 (TK-10): > 100 µM (inactive)
- GI50 (U-251): > 100 µM (inactive)
- GI50 (MDA-N): > 100 µM (inactive)
- GI50 (DU-145): > 100 µM (inactive)
- GI50 (HOP-92): > 100 µM (inactive)
- GI50 (MDA-MB-435): 61.2 µM (inactive)
- GI50 (HL-60): 98.4 µM (inactive)
- GI50 (HCT-15): > 100 µM
- GI50 (BT-549): > 100 µM (inactive)
- GI50 (SNB-19): > 100 µM (inactive)
- GI50 (NCI-H23): > 100 µM (inactive)
- GI50 (ACHN): > 100 µM (inactive)
- GI50 (NCI-H226): > 100 µM (inactive)
- GI50 (SN12C): > 100 µM (inactive)
- GI50 (OVCAR-4): > 100 µM (inactive)
- GI50 (KM12): > 100 µM (inactive)
- GI50 (OVCAR-3): > 100 µM (inactive)
- GI50 (MOLT-4): > 100 µM (inactive)
- GI50 (SF-268): > 100 µM (inactive)
- GI50 (K562): 22.5 µM (inactive)
- GI50 (SF-539): > 100 µM (inactive)
- GI50 (IGROV-1): > 100 µM (inactive)
- GI50 (MCF7): > 10 µM (inactive)
- GI50 (HOP-62): > 100 µM (inactive)
- GI50 (EKVX): > 100 µM (inactive)
- GI50 (MDA-MB-231): > 100 µM (inactive)
- GI50 (OVCAR-8): > 100 µM (inactive)
- GI50 (CAKI-1): > 100 µM (inactive)
- GI50 (RPMI-8226): > 100 µM (inactive)
- GI50 (SF-295): > 100 µM (inactive)
- GI50 (HT-29): 44.5 µM (inactive)
- GI50 (UACC-257): > 100 µM (inactive)
- GI50 (T47D): > 100 µM (inactive)
- GI50 (CCRF-CEM): > 100 µM (inactive)
- GI50 (LOX IMVI): > 10 µM (inactive)
- GI50 (UO-31): > 100 µM (inactive)
- GI50 (Malme-3M): > 100 µM (inactive)
- GI50 (HCC 2998): > 100 µM (inactive)
- GI50 (SR): 23.4 µM (inactive)
